Molecules are shown by their SMILES.

The assay addresses T1, androgen receptor (Homo sapiens, UniProt P10275).
T1 sequence (P10275 1-920): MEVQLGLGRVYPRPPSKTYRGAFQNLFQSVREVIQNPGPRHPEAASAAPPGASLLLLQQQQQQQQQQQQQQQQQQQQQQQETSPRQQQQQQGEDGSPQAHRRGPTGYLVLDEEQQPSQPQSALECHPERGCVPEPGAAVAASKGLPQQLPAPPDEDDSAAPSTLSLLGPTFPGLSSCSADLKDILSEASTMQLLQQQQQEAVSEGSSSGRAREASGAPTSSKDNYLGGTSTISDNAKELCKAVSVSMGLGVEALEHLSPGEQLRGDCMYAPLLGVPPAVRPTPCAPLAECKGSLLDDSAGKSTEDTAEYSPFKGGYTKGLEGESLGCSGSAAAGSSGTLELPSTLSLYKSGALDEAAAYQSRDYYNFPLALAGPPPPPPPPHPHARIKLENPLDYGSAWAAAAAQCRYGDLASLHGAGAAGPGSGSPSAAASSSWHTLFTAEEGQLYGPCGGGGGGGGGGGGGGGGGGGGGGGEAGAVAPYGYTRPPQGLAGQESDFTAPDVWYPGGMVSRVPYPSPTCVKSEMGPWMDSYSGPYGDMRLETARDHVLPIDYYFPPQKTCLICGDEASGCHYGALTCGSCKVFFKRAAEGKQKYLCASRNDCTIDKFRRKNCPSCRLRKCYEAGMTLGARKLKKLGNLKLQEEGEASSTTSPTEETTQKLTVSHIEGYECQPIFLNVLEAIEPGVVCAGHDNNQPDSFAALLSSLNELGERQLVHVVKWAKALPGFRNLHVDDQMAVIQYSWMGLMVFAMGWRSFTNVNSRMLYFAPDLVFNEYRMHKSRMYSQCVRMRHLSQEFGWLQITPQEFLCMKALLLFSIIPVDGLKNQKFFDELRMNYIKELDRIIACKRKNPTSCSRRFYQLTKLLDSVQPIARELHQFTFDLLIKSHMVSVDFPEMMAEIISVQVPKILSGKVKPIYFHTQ
In words: biochemical assays (not further specified). To be noted: compound coupled from the second-peak acid (RT=21 min).

As to `Cc1cnc(F)c(CNC(=O)C(O)(c2ccccc2)C(F)(F)C(F)(F)F)c1` (single isomer, unassigned) [Example 3-2, (2R or 2S)-3,3,4,4,4-pentafluoro-N-[(2-fluoro-5-methylpyridin-3-yl)methyl]-2-hydroxy-2-phenylbutanamide], the “activity in the biochemical assays” value is listed as “active”.

The values above are taken from patent publication US7629367B2, “N-(2-benzyl)-2-phenylbutanamides as androgen receptor modulators” (Merck & Co., Inc., priority 2004, dated 2009).
